Measured values published in patent US20110124505A1, “Agricultural Compositions” (COGNIS IP MANAGEMENT GMBH, priority 2008, published 2011).

Assay: Solubility tests of biocides in different solvents
From the text: The solubility of various herbicides, fungicides and insecticides has been tested using different solvents.

[1] = in 100 ml of solvent C8-C10 fatty acid dimethyl amide (1:1) (Example 11)
[2] = in 100 ml of solvent C8-C10 fatty acid methyl ester (Comparative Example C14)
[3] = in 100 ml of solvent C8 fatty acid dimethylamide (Example 9)
[4] = in 100 ml of solvent C10 fatty acid dimethyl amide (Example 10)
[5] = in 100 ml of solvent C18 fatty acid dimethyl amide (Comparative Example C13)

O=C(NC(=O)c1c(F)cccc1F)Nc1ccc(OC(F)(F)C(F)OC(F)(F)F)c(Cl)c1 (stereo not drawn) [Novaluron]
Solubility [1]: 32 percent by weight
Solubility [2]: 1 percent by weight
Solubility [3]: 28 percent by weight
Solubility [4]: 28 percent by weight
Solubility [5]: 8 percent by weight

Cc1c(COC(=O)[C@@H]2[C@H](/C=C(\Cl)C(F)(F)F)C2(C)C)cccc1-c1ccccc1 (racemic) [Bifenthrin]
Solubility [1]: 34 percent by weight
Solubility [2]: 0 percent by weight
Solubility [3]: 30 percent by weight
Solubility [4]: 31 percent by weight
Solubility [5]: 10 percent by weight

CC(C)(C)C(O)(CCc1ccc(Cl)cc1)Cn1cncn1 (stereo not drawn) [Tebucanazole]
Solubility (in 100 ml of solvent C6 fatty acid dimethyl amide (Comparative Example C7)): 18 percent by weight
Solubility (in 100 ml of solvent C8-C10 fatty acid dimethyl amide (1:1) (Example 7)): 39 percent by weight
Solubility (in 100 ml of solvent C8-C10 fatty acid methyl ester (Comparative Example C9)): 9 percent by weight
Solubility (in 100 ml of solvent C8 fatty acid dimethylamide (Example 5)): 30 percent by weight
Solubility (in 100 ml of solvent C10 fatty acid dimethyl amide (Example 6)): 33 percent by weight
Solubility (in 100 ml of solvent C12 fatty acid dimethyl amide (Example 8)): 35 percent by weight
Solubility (in 100 ml of solvent C18 fatty acid dimethyl amide (Comparative Example C8)): 22 percent by weight
Solubility (in 100 ml of solvent Di-C8 alkyl carbonate (Comparative Example C11)): 2 percent by weight
Solubility (in 100 ml of solvent Di-C8 alkyl ether (Comparative Example C12)): 2 percent by weight
Solubility (in 100 ml of solvent Triacetin (Comparative Example C10)): 6 percent by weight

CCOc1cc(Oc2ccc(C(F)(F)F)cc2Cl)ccc1[N+](=O)[O-] [Oxyfluorfen]
Solubility (in 100 ml of solvent C6-C12 fatty alcohol + 6PO (Comparative Example C4)): 10 percent by weight
Solubility (in 100 ml of solvent C6 fatty acid dimethyl amide (Comparative Example C1)): 12 percent by weight
Solubility (in 100 ml of solvent C8-C10 fatty acid dimethyl amide (1:1) (Example 3)): 31 percent by weight
Solubility (in 100 ml of solvent C8-C10 fatty acid methyl ester (Comparative Example C3)): 3 percent by weight
Solubility (in 100 ml of solvent C8 fatty acid dimethylamide (Example 1)): 25 percent by weight
Solubility (in 100 ml of solvent C10 fatty acid dimethyl amide (Example 2)): 28 percent by weight
Solubility (in 100 ml of solvent C12-C15 benzoate (Comparative Example C5)): 7 percent by weight
Solubility (in 100 ml of solvent C12 fatty acid dimethyl amide (Example 4)): 27 percent by weight
Solubility (in 100 ml of solvent C18 fatty acid dimethyl amide (Comparative Example C2)): 19 percent by weight
Solubility (in 100 ml of solvent Di-C8 alkyl carbonate (Comparative Example C6)): 4 percent by weight
